Measurements published in patent publication US20200179312A1, “ANALOGUES OF CYSTEAMINE AS THERAPEUTIC AGENTS FOR CYSTIC FIBROSIS” (I.E.R.F.C. EUROPEAN INSTITUTE FOR CYSTIC FIBROSIS RESEARCH, priority 2018, published 2020).

Columns and labels:
[1] = tested on: BECN1, SQSTM1/p62, (phospho)p42/44 MAPK; test: Immunoblot of autophagy and inflammation markers in nasal primary cells; type: cell-based, human; conditions: 0.1 μM
Excerpt: (§1) Freshly isolated brushed nasal epithelial cells were collected by nasal brushing, as previously described (21, 21) from 10 F508del-CFTR homozygous CF patients and from 5 non-CF healthy volunteers recruited from staff at the same time points. Both patients and healthy volunteers gave written informed consent. […] Brushes with cells were immediately transferred into RPMI 1640 medium (Invitrogen) containing 1% penicillin-streptomycin (Lonza, 17-602E), in 15-ml sterilized tubes. The tubes were incubated at 37° C. for 2 h on a thermo shaker, to remove all cell from brushes; the brushes were then removed and the cells centrifuged at 800×g (2000 rpm) for 20 min. The supernatant fractions were discarded and the cell pellet treated with […] of trypsin-versene (EDTA) solution (Lonza, 17-161) for 4 min at 37° C. to disaggregate possible cell clusters. Trypsin solution was inactivated by adding 3 ml of serum-free Bronchial Epithelial cell Growth Medium BEGM (Clonetics, Lonza, CC3170). After centrifugation at 800×g (2000 rpm) for 10 min, cells were placed in CELLC T 25 flasks (Sarstedt Ltd, CS300) with 10 ml of BEGM medium. Nonspecific epithelial cells were removed during the daily cell washing and medium changes.
(§2) The proteins of cell lines lysates or lung or small intestine homogenates, obtained from treated and untreated cells or mice, were quantified by a Bio-Rad protein assay to ensure equal protein loading before immunoblot analysis. Fifty micrograms of proteins were loaded in each lane. Antibodies against SQSTM1, (Sigma Aldrich,P0067) 1:1000, BECN1 (Abcam, ab58878), 1:1000, CFTR clone CF3 (Abcam, ab2784) 1:1000 or anti-CFTR antibody 660 1:1000, Phospho-p44/42 MAPK (Erk1/2) (Thr202/Tyr204) (Cell Signaling Technology, #91101) 1:1000, TG2 (CUB7402, NEOMARKER) 1:1000 were used. Normalization was performed by probing the membrane with anti-β-actin (Cell Signaling, #4970) 1:1000 or anti-α-tubulin (Cell Signaling Technology, 2148) 1:1000.

CFTR = CFTR (Homo sapiens, UniProt P13569, DEL508-508); test: Immunoblot detection of CFTR in nasal primary cells; type: cell-based; parameters: Freshly isolated brushed nasal epithelial cells were collected by nasal brushing; endogenous in cells; host or cells: primary nasal epithelial cells from F508del-homozygous CF patients
Excerpt: as §1, §2

Sequence of CFTR (P13569 with tags, fused parts or gaps DEL508-508): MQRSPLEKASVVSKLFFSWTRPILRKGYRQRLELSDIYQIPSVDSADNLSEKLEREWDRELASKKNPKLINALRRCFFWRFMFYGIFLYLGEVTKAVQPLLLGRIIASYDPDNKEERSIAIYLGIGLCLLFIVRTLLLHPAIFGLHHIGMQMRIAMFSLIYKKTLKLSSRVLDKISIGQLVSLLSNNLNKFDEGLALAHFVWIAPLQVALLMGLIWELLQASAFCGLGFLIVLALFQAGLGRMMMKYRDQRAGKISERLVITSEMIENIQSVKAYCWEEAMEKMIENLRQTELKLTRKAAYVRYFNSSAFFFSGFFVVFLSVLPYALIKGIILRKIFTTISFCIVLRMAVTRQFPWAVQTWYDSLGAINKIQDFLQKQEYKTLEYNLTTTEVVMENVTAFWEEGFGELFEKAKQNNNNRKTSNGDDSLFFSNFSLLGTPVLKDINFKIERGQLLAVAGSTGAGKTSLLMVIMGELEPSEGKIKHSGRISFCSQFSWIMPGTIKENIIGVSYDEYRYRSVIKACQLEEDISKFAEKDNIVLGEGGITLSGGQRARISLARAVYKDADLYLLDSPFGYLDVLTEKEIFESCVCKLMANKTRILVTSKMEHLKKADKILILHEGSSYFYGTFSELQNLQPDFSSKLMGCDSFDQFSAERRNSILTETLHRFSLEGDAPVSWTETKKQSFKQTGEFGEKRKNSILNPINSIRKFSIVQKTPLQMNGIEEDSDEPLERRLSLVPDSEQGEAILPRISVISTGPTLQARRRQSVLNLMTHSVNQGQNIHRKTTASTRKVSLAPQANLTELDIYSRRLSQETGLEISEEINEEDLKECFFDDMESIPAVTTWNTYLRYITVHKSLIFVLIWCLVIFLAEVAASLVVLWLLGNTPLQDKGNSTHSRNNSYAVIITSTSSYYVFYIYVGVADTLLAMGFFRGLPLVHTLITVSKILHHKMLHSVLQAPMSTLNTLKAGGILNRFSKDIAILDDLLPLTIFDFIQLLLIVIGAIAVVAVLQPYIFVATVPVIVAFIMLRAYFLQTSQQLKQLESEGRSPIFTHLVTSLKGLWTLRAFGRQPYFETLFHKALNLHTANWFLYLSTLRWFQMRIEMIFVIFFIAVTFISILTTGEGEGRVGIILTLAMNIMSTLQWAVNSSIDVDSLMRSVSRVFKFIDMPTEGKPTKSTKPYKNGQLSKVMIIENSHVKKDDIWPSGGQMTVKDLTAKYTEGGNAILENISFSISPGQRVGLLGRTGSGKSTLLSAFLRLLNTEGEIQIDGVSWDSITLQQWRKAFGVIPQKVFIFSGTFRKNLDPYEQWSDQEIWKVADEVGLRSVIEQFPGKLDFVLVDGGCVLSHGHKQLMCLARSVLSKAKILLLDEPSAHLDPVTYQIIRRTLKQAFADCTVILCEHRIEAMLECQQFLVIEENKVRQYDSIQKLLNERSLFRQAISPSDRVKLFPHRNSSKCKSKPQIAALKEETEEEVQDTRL

PM-resident CFTR protein after washout (CFTR; 0.1 μM, 24 h of washout): maintained | PM-resident CFTR protein after washout (CFTR; 48 h of washout): decreases | PM-resident CFTR protein after washout with EGCG added (CFTR; 48 h of washout, EGCG added): completely maintained
Compound: NCCCS [IE1, 3-aminopropane-1-thiol]
BECN1 level [1]: able to restore BECN1 | Inflammation biomarkers (phospho)p42/44 MAPK [1]: decrease | p62 levels [1]: reduce p62 levels | Effect on (phospho)p42/44 MAPK after 48 h in presence of EGCG ([1]; 48 h, EGCG): maintained | Effect on BECN1 and p62 after 48 h with EGCG addition ([1]; 48 h, EGCG addition): preserved | Effect on (phospho)p42/44 MAPK after 48 h ([1]; after 48 h): completely lost | Effect on BECN1 and p62 after 48 h ([1]; after 48 h): disappears | PM-resident CFTR protein (CFTR; 0.1 μM): a sizeable fraction of the channel resided at the PM
